Reference: patent US20160201063A1, “EPIGENETIC REGULATORS OF FRATAXIN” (RANA THERAPEUTICS, INC., priority 2013, published 2016)
Structures can show the parent of a compound that is named as a salt.

Tests used:
[1] = system: FXN mRNA; test: Gapmer screen in differentiated myotubes, FXN mRNA levels; type: cell-based; settings: 4 days after transfection
Excerpt: Subsequently, various oligos targeting ACTL6A, EID1, HIC1, JUND, KAT2A, PRKCD, and YEATS4 were screened in differentiated myotubes for FXN mRNA levels. Measurements were taken 4 days after transfection.

[2] = system: FXN mRNA; test: Screen of epigenetic inhibitors in GM0321 normal fibroblasts, FXN RNA levels; type: cell-based, human; settings: for fold induction at 1 µM / fold induction at 5 µM: Homo sapiens, Fibroblast, 72 h; for fold induction at 1 µM: read-out: FXN mRNA fold change, 321B 1 uM; for fold induction at 5 µM: read-out: FXN mRNA fold change, 321B 5 uM
[3] = system: FXN mRNA; test: Screen of library of eighty epigenetic inhibitors in GM03816 FRDA diseased fibroblasts, FXN mRNA fold change; type: cell-based, human; settings: for fold induction at 1 µM / fold induction at 5 µM: Homo sapiens, Fibroblast, 72 h; for fold induction at 1 µM: read-out: 3816 1 uM (FXN mRNA fold change); for fold induction at 5 µM: read-out: 3816 5 uM (FXN mRNA fold change)
Method: FXN RNA levels are indicated on the y-axis and the inhibitors used at both 1 μM and 5 μM are shown on the x-axis.
A screen of a library of eighty epigenetic inhibitors (Cayman Chemical) was performed in GM03816 FRDA fibroblasts to identify epigenetic regulators that upregulate FXN expression.

[4] = GM0321 normal fibroblasts, 1 uM inhibitor, 3 days of treatment
[5] = GM0321 normal fibroblasts, 5 uM inhibitor, 3 days of treatment
[6] = GM03816 FRDA diseased fibroblasts, 1 uM inhibitor, 3 days of treatment
[7] = GM03816 FRDA diseased fibroblasts, 5 uM inhibitor, 3 days of treatment

Row | Compound | FXN mRNA fold change, 321B 1 uM [2, 4] | FXN mRNA fold change, 321B 5 uM [2, 5] | 3816 1 uM (FXN mRNA fold change) [3, 6] | 3816 5 uM (FXN mRNA fold change) [3, 7] | other results
1 | ACTL6A-04: LNA/DNA gapmer to human ACTL6A, SEQ ID NO 4, GCCCAGTAGAACGAC (LNA modifications, chemistry not fully specified) | – | – | – | – | FXN mRNA level [1]: upregulation of FXN mRNA
2 | HIC1-1: LNA/DNA gapmer to human HIC1, SEQ ID NO 70, GGCCGGTGTAGATGA (LNA modifications, chemistry not fully specified) | – | – | – | – | FXN mRNA level [1]: upregulation of FXN mRNA
3 | KAT2A-05: LNA/DNA gapmer to human KAT2A, SEQ ID NO 35, CATTGACCAGCTCCA (LNA modifications, chemistry not fully specified) | – | – | – | – | FXN mRNA level [1]: upregulation of FXN mRNA
4 | YEATS4-9: LNA/DNA gapmer to human YEATS4, SEQ ID NO 91, AGTTTCACGACTTGC (LNA modifications, chemistry not fully specified) | – | – | – | – | FXN mRNA level [1]: upregulation of FXN mRNA
5 | KAT2A-06: LNA/DNA gapmer to human KAT2A, SEQ ID NO 36, GGCGATATACTCCTT (LNA modifications, chemistry not fully specified) | – | – | – | – | FXN mRNA level [1]: upregulation of FXN mRNA
6 | Oc1cc(O)cc(/C=C/c2ccc(O)c(O)c2)c1 [Picetannol] | 0.5008 | 0.538 | 0.7867 | 0.5435 | –
7 | NC(=O)c1cccc(N)c1 [3-amino Benzamide] | 1.089 | 1.365 | 1.289 | 1.357 | –
8 | NC(=O)[C@H](CCCN=C(N)CCl)NC(=O)c1ccccc1 [Cl-Amidine] | 0.9432 | 0.9931 | 1.153 | 0.9028 | –
9 | CCC(=O)CCCCC[C@@H]1NC(=O)[C@H]2CCCCN2C(=O)[C@H]([C@@H](C)CC)NC(=O)[C@H](Cc2cn(OC)c3ccccc23)NC1=O [Apicidin] | – | – | – | – | fold induction at 1 µM [2]: 0.119; fold induction at 5 µM [2]: 0.397; fold induction at 1 µM [3]: 0.0791; fold induction at 5 µM [3]: 0.435
10 | (3S,3′S,5aR,5aR,10bR,10′bR,11aS,11′aS)- 2,2′,3,3′,5a,5′a,6,6′-octahydro- 3,3′-bis(hydroxymethyl)-2,2′- dimethyl-[10b,10′b(11H,11′H)- bi3,11a-epidithio-11aH- pyrazino[1′,2′:1,5]pyrrolo[2,3- b]indole]-1,1′4,4′-tetrone [Chaetocin, reference compound] | 0.9084 | 0.9952 | 0.9302 | 0.7778 | –
11 | O=C(O)CCNc1cc(N2CCc3ccccc3CC2)nc(-c2cccnc2)n1 [GSK-J2 (sodium salt)] | 1.063 | – | 0.9711 | 0.9938 | –
12 | ACTL6A-02: LNA/DNA gapmer to human ACTL6A, SEQ ID NO 2, ATCGCCATCTATTTC (LNA modifications, chemistry not fully specified) | – | – | – | – | FXN mRNA level [1]: upregulation of FXN mRNA
13 | CCCC(CCC)C(=O)O [Valproic acid] | – | – | – | – | fold induction at 1 µM [2, 4]: 1.26; fold induction at 5 µM [2, 5]: 0.847; fold induction at 1 µM [3, 6]: 0.901; fold induction at 5 µM [3, 7]: 1
14 | EID1-04: LNA/DNA gapmer to human EID1, SEQ ID NO 12, AGCTCTTCGATAAAA (LNA modifications, chemistry not fully specified) | – | – | – | – | FXN mRNA level [1]: upregulation of FXN mRNA
15 | O=C1CCc2c(ccc3ccccc23)O1 [Splitomicin] | – | – | – | – | fold induction at 1 µM [2, 4]: 1.08; fold induction at 5 µM [2, 5]: 1.01; fold induction at 1 µM [3, 6]: 0.957; fold induction at 5 µM [3, 7]: 0.939
16 | NC(=O)[C@H](CCCN=C(N)CF)NC(=O)c1ccccc1 [F-Amidine] | 0.9152 | 0.9697 | 0.7818 | 0.6484 | –
17 | CCOC(=O)CCNc1cc(N2CCc3ccccc3CC2)nc(-c2ccccn2)n1.Cl [GSK-J4 (hydrochloride)] | 1.002 | 0.8744 | 0.927 | 0.8762 | –
18 | O=C(CCCCCCC(=O)Nc1ccc(I)cc1)NO [Oligo 4-iodo-SAHA] | 0.668 | 0.5901 | 0.6878 | 0.1302 | –

Row | Compound | FXN mRNA fold change, 321B 1 uM [2, 4] | FXN mRNA fold change, 321B 5 uM [2, 5] | 3816 1 uM (FXN mRNA fold change) [3, 6] | 3816 5 uM (FXN mRNA fold change) [3, 7] | other results
19 | Nc1cc(F)ccc1NC(=O)c1ccc(CNC(=O)/C=C/c2cccnc2)cc1 [Chidamide] | – | – | – | – | fold induction at 1 µM [2, 4]: 0.835; fold induction at 5 µM [2, 5]: 0.799; fold induction at 1 µM [3, 6]: 0.924; fold induction at 5 µM [3, 7]: 0.968
20 | COc1ccc(Cn2ccc3ccc(C(=O)NO)cc32)cc1 [PCI 34051] | 0.9743 | 1.306 | 1.084 | 1.209 | –
21 | O=C(/C=C/c1ccc(O)cc1)c1ccc(O)cc1O [Isoliquiritigenin] | – | – | – | – | fold induction at 1 µM [2, 4]: 1.16; fold induction at 5 µM [2, 5]: 1.29; fold induction at 1 µM [3, 6]: 1.27; fold induction at 5 µM [3, 7]: 0.963
22 | CC(C(=O)Nc1cccc(/N=C/c2c(O)ccc3ccccc23)c1)c1ccccc1 (stereo not shown) [Salermide] | – | – | – | – | fold induction at 1 µM [2, 4]: 1.06; fold induction at 5 µM [2, 5]: 0.815; fold induction at 1 µM [3, 6]: 1.16; fold induction at 5 µM [3, 7]: 0.996
23 | Nc1ccccc1NC(=O)c1ccc(CNC(=O)OCc2cccnc2)cc1 [MS-275] | – | 0.2713 | 0.2266 | 0.2333 | –
24 | CCCC(=O)[O-].[Na+] [Sodium Butyrate] | – | – | – | – | fold induction at 1 µM [2]: 1.06; fold induction at 5 µM [2]: 0.707; fold induction at 1 µM [3]: 1.03; fold induction at 5 µM [3]: 1.16
25 | Cc1ccc(C(=O)Nc2ccc(S(=O)(=O)O)c3cc(S(=O)(=O)O)cc(S(=O)(=O)O)c23)cc1NC(=O)c1cccc(NC(=O)Nc2cccc(C(=O)Nc3cc(C(=O)Nc4ccc(S(=O)(=O)O)c5cc(S(=O)(=O)O)cc(S(=O)(=O)O)c45)ccc3C)c2)c1 [Suramin] | – | – | – | – | fold induction at 5 µM [2]: 0.772; fold induction at 1 µM [3]: 0.954; fold induction at 5 µM [3]: 0.835
26 | O=C(/C=C/c1cccc(C(=O)NO)c1)NO [CBHA] | 0.7208 | 0.4875 | 0.4678 | 0.1327 | –
27 | CCOC(=O)CCNc1cc(N2CCc3ccccc3CC2)nc(-c2cccnc2)n1.Cl [GSK-J5 (hydrochloride)] | 0.8597 | 0.9741 | 1.183 | 0.9451 | –
28 | O=C(Nc1ccc2c(O)cc(S(=O)(=O)O)cc2c1)Nc1ccc2c(O)cc(S(=O)(=O)O)cc2c1 [AMI-1] | – | 0.4073 | 0.5579 | 0.566 | –
29 | Nc1ncnc2c1ncn2[C@@H]1O[C@H](CSCC[C@H](N)C(=O)O)[C@@H](O)[C@H]1O [S-Adenosylhomocysteine] | – | – | – | – | fold induction at 1 µM [2, 4]: 0.975; fold induction at 5 µM [2, 5]: 0.619; fold induction at 1 µM [3, 6]: 1.07; fold induction at 5 µM [3, 7]: 0.886
30 | CCCCc1nc2cc(/C=C/C(=O)NO)ccc2n1CCN(CC)CC [SB 939] | – | – | – | – | fold induction at 1 µM [2, 4]: 0.435; fold induction at 5 µM [2, 5]: 0.465; fold induction at 1 µM [3, 6]: 0.298; fold induction at 5 µM [3, 7]: 0.315
31 | COc1cc2c(NC3CCN(C(C)C)CC3)nc(C3CCCCC3)nc2cc1OCCCN1CCCC1 [UNC0638, 2-Cyclohexyl-6-methoxy-N-[1-(1-methylethyl)-4-piperidinyl]-7-[3-(1-pyrrolidinyl)propoxy]-4-quinazolinamine, reference compound] | – | – | – | – | fold induction at 1 µM [2, 4]: 1.09; fold induction at 5 µM [2, 5]: 1.02; fold induction at 1 µM [3, 6]: 1.27; fold induction at 5 µM [3, 7]: 1.17
32 | O=c1oc2c(O)c(O)cc3c(=O)oc4c(O)c(O)cc1c4c23 [Ellagic Acid] | – | – | – | – | fold induction at 1 µM [2, 4]: 0.675; fold induction at 5 µM [2, 5]: 0.248; fold induction at 1 µM [3, 6]: 0.788; fold induction at 5 µM [3, 7]: 0.189
33 | O=C(O)C(Cc1c[nH]c2ccccc12)N1C(=O)c2ccccc2C1=O (stereo not shown) [RG-108] | – | 0.6222 | 1.001 | 0.8966 | –
34 | O=C(CCCCCCC(=O)NO)NO [Suberohydroxamic Acid] | – | – | – | – | fold induction at 1 µM [2, 4]: 0.959; fold induction at 5 µM [2, 5]: 1.02; fold induction at 1 µM [3, 6]: 1.18; fold induction at 5 µM [3, 7]: 0.982
35 | O=C(NCc1ccccc1)c1c(/N=C/c2c(O)ccc3ccccc23)sc2c1CCCC2 [JGB1741] | 0.9963 | 0.7224 | 1.006 | 1.17 | –
36 | Cl.N[C@@H]1C[C@H]1c1ccccc1 (racemic) [2-PCPA (hydrochloride)] | 0.7149 | 0.7888 | 1.058 | 0.8786 | –
